Experimental data as given in ChEMBL document CHEMBL1201862, “PubChem BioAssay data set” (2004).
The source made the active and inactive calls.

What was measured:
[1] = viability of PTEN-deleted HCT116 cells – cell-based, HCT116 PTEN knockout, dose response (AID 1047); type: functional;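 note: HCT116 colon tumor cells with PTEN knocked out; cells exposed to compound for 60 hours before readout; potency for loss of cell viability measured by luminescence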
[2] = viability of HCT116 lacking mutant beta-catenin – cell-based, human colon tumor, dose response (AID 1045); type: functional;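 note: HCT116 colon tumor cells with beta catenin knocked out; cells exposed to compound for 60 hours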
[3] = Vero E6 cell cytotoxicity, dose response, cytotoxicity control for non-replicating M. tuberculosis project, secondary assay (AID 492998); type: functional, VeroE6; settings: Vero C1008
cells = type: functional
[4] = THP-1 cell cytotoxicity, dose response, cytotoxicity control for non-replicating M. tuberculosis project (AID 489025); type: functional
[5] = biological target: T1, Short transient receptor potential channel 4 (Mus musculus, UniProt Q9QUQ5); assay: block of DAMGO-driven TRPC4 calcium entry – cell-based, HEK293 TRPC4/mu-opioid, Fluo-4 calcium, dose response (AID 434942); type: functional;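 note: potency of inhibitors blocking the TRPC4 calcium response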
T1 sequence (Q9QUQ5 whole entry): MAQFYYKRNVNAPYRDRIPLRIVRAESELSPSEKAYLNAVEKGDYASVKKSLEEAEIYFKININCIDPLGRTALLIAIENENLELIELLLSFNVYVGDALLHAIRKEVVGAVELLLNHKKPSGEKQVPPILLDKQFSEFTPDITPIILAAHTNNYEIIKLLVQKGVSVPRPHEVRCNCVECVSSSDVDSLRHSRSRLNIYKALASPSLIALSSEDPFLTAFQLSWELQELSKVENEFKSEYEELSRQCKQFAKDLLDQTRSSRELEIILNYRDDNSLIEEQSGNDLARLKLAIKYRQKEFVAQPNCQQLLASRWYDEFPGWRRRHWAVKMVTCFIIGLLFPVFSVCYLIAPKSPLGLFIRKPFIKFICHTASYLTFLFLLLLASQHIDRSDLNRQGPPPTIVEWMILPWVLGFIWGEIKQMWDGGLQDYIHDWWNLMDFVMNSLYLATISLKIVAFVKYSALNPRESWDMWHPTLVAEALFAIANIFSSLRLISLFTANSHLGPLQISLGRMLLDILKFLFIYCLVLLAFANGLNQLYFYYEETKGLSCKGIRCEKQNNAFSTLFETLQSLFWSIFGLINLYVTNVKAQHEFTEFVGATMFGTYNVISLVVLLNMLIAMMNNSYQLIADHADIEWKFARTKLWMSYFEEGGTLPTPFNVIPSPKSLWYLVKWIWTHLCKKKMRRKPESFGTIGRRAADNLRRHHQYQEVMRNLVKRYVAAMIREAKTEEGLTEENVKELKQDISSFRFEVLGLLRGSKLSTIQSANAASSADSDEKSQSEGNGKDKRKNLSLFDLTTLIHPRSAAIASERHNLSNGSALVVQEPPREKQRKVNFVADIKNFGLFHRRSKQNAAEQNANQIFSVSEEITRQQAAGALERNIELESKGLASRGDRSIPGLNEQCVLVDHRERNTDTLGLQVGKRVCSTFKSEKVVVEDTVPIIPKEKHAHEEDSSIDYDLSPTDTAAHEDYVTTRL

[6] = biological target: T1, Short transient receptor potential channel 4; assay: calcium entry via TRPC4 opening agents – cell-based, HEK293 TRPC4/mu-opioid, Fluo-4 calcium, dose response (AID 434937); type: functional
Leucine aminopeptidase = biological target: T2, Leucine aminopeptidase (Plasmodium falciparum 3D7, UniProt Q8IL11); assay: P. falciparum M17LAP inhibitors, primary screen, biochemical, fluorogenic H-Leu-NHMec substrate, 1536-well (AID 1619); type: functional
T2 sequence (Q8IL11 whole entry): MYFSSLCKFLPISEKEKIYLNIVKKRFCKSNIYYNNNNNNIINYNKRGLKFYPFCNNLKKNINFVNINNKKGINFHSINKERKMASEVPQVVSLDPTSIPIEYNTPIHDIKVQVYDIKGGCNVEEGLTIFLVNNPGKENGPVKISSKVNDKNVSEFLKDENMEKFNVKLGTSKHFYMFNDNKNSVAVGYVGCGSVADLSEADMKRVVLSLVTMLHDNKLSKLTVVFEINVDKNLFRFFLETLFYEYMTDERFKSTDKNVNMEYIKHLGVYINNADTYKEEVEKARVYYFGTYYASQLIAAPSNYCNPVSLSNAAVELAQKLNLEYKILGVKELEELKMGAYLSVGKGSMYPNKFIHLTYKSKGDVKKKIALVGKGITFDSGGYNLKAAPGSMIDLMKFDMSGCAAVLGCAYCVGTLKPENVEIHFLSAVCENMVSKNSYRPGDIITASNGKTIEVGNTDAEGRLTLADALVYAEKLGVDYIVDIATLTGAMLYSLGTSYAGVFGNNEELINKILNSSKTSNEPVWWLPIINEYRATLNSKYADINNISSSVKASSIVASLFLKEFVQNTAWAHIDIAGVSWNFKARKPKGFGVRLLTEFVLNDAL

Aminopeptidase N = biological target: T3, Aminopeptidase N (Plasmodium falciparum FcB1/Columbia, UniProt O96935); assay: malaria alanyl aminopeptidase activity blockers – biochemical, fluorogenic H-Leu-NHMec substrate, 1536-well (AID 1445); design: species or system Plasmodium falciparum 3D7, 3D7
T3 sequence (O96935 whole entry): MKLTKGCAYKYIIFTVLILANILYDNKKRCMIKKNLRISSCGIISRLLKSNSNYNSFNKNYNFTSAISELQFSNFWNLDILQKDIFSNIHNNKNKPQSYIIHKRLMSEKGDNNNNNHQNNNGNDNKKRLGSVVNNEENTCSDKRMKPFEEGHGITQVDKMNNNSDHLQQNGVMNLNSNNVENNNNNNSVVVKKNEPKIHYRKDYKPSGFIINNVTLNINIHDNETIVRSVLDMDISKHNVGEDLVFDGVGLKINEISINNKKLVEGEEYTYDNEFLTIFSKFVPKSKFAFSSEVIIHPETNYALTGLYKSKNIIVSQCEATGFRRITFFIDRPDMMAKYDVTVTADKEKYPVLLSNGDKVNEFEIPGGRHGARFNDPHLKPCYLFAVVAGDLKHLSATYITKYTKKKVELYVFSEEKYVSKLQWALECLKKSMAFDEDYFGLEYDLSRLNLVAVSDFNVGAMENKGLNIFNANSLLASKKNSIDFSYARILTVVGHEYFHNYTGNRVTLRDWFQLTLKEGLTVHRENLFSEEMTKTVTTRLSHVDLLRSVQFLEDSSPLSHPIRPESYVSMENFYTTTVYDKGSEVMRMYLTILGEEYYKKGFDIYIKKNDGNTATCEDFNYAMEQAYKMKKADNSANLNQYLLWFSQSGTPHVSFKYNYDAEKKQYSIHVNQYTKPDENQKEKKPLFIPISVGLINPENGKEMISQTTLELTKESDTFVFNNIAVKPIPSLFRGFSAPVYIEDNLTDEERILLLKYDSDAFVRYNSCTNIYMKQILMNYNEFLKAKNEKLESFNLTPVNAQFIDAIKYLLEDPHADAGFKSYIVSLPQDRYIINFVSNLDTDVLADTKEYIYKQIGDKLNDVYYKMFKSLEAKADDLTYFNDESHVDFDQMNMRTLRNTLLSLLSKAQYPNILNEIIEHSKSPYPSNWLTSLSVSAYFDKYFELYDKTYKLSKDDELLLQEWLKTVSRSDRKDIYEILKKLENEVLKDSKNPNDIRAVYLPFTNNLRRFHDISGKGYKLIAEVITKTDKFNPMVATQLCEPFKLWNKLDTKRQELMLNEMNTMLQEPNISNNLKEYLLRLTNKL

Cytochrome P450 3A4 = Cytochrome P450 3A4 (Homo sapiens, UniProt P08684);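 note: CYP3A4 tested as one member of a cytochrome P450 panel screen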
[7] = biological target: DNA dC->dU-editing enzyme APOBEC-3A (Homo sapiens, UniProt P31941); assay: Dose Response confirmation of small molecule APOBEC3A DNA Deaminase Inhibitors via a fluorescence-based single-stranded DNA deaminase assay. [Related pubchem assays (depositor defined):AID493011, AID493024]; type: functional
[8] = biological target: DNA dC->dU-editing enzyme APOBEC-3G (Homo sapiens, UniProt Q9HC16); type: functional;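 note: Dose-response counterscreen measuring inhibition of APOBEC3G DNA deaminase activity, run while confirming APOBEC3A inhibitors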
[9] = biological target: FAD-linked sulfhydryl oxidase ALR (Homo sapiens, UniProt P55789); assay: ALR-catalysed DTT oxidation blockers – biochemical, H2O2 detection, luminescence, cherry-pick, dose response (AID 493248)
HEK293 [10] = assay: inhibition of NOD1-driven NF-kB reporter – cell-based, luminescence, uHTS, primary screen (AID 1578); type: functional; settings: Homo sapiens
INS1 = assay: INS-1E survival protection against cytokine death – cell-based, luminescence, retest, dose response (AID 449756); type: functional; settings: Rattus norvegicus;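 note: cell death triggered by IL-1 beta plus TNF-alpha plus IFN-gamma mixture; protective hits raise ATP signal compared with cytokine alone wells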
HEK293 [11] = assay: cells; type: functional, cell-based; settings: Homo sapiens
[12] = biological target: Nucleotide-binding oligomerization domain-containing protein 2 (Homo sapiens, UniProt Q9HC29); assay: inhibition of NOD2-driven NF-kB reporter – cell-based, luminescence, uHTS, HEK293 (AID 1566); type: functional
HEK293 [13] = assay: cells; type: functional, cell-based; settings: Homo sapiens; remark: listed apart in the source
HEK293 [14] = assay: NOD2 signaling inhibitors in MDP-stimulated cells, cell-based, uHTS, luminescence (AID 2001); type: functional; settings: Homo sapiens
HEK293 [15] = assay: cells; type: functional, cell-based; settings: Homo sapiens; remark: listed apart in the source

DNA dC->dU-editing enzyme APOBEC-3A, sequence (P31941 whole entry): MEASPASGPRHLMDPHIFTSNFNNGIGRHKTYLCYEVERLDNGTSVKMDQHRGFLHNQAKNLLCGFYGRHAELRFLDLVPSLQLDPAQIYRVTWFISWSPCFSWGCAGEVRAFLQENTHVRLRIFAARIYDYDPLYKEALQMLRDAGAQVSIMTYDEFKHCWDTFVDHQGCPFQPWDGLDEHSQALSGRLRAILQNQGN
DNA dC->dU-editing enzyme APOBEC-3G, sequence (Q9HC16 whole entry): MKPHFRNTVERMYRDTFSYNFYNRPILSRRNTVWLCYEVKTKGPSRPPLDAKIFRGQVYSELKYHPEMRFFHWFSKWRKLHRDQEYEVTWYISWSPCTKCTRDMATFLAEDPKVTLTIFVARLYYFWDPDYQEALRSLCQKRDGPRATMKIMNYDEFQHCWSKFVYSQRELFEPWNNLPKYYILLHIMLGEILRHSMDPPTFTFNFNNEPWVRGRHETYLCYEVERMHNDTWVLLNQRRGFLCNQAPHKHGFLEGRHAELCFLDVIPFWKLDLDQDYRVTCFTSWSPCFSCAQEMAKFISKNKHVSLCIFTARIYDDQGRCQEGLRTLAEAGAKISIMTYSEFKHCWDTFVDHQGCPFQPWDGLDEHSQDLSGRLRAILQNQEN
Cytochrome P450 3A4, sequence (P08684 whole entry): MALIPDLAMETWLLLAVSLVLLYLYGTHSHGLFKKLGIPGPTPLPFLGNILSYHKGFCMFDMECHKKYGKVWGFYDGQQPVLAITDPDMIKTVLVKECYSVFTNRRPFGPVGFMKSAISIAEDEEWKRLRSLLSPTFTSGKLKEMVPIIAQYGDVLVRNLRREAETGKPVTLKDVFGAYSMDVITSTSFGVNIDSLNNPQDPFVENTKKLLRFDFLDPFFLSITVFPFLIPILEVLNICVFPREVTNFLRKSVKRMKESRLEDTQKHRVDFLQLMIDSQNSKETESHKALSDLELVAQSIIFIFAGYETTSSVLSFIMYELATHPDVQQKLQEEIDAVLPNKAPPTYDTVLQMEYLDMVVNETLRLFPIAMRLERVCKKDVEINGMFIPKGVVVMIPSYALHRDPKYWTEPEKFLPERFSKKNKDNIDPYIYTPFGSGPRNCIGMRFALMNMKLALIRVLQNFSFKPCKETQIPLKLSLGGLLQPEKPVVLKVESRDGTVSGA
Nucleotide-binding oligomerization domain-containing protein 2, sequence (Q9HC29 whole entry, the tested form may be a part): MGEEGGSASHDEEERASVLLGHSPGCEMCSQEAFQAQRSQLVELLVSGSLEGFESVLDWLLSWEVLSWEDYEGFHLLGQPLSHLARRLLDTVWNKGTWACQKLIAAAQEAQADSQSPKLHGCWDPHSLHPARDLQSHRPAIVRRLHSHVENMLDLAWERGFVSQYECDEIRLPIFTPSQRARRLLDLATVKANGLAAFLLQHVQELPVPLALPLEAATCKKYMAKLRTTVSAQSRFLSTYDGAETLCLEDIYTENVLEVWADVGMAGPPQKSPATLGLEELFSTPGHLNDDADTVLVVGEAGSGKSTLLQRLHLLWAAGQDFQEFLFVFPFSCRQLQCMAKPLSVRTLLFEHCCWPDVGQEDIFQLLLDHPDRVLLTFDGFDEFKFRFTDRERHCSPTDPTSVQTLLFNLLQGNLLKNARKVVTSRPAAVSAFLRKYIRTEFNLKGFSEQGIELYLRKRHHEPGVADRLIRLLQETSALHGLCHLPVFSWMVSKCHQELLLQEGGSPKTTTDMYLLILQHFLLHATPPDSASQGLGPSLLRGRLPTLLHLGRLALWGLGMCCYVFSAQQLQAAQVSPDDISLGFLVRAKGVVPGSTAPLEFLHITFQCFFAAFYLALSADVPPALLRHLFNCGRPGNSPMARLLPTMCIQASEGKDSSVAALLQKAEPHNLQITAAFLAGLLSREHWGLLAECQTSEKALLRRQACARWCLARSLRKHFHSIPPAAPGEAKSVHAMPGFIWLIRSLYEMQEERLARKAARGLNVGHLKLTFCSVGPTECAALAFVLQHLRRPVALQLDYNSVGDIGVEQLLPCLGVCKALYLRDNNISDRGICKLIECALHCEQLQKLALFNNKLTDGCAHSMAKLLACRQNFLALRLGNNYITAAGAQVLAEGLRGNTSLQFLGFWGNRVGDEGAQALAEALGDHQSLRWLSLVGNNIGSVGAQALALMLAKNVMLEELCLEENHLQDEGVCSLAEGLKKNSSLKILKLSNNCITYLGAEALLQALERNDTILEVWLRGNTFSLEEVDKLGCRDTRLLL
FAD-linked sulfhydryl oxidase ALR, sequence (P55789 whole entry): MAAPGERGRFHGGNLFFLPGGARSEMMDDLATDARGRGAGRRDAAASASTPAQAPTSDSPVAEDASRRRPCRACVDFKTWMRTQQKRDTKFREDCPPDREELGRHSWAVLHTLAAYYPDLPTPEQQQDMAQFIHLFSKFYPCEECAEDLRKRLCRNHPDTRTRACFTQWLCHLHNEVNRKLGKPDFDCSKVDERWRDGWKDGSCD

With `COc1ccc(/C=C2\COc3ccccc3C2=O)cc1OC` the EC50 [1] was 7.42 µM (active), the EC50 [2] was 7.29 µM (active) and the CC50 [3] was > 20 µM (active). For the same molecule, the IC50 (cells) was 12.8 µM (active) and the CC50 [4] was 17.9 µM (active).

With `CCCCC(c1nnnn1CC1CCCO1)N1CCN(Cc2ccccc2)CC1` (centres undefined) the EC50 [5] was 2.37 µM (active) and the EC50 [6] was 4.73 µM (active).

With `CSc1nc2nc(-c3ccccc3)cc(O)n2n1` the IC50 (Leucine aminopeptidase) was 28.6 µM (active).

With `COc1cc(OC)c(NC(=O)c2ccc3c(SCC(=O)O)c4c(nc3c2)CCCC4)cc1Cl` the IC50 (Aminopeptidase N) was 31.6 µM (active).

For `O=S(=O)(c1cccc(C(F)(F)F)c1)N1CCC(c2cc(-c3cccc4ccccc34)[nH]n2)CC1`, the AC50 (Cytochrome P450 3A4) was “inconclusive”.

In the case of `CCc1ccc(/C=C/c2c[nH]c3ccccc23)[n+](CC)c1`, the IC50 [7] is reported as 2.33 µM (active) and the IC50 [8] is reported as 2.24 µM (active).

With `Nc1n[nH]c(N)c1N=Nc1ccccc1` the IC50 (Leucine aminopeptidase) was 7.03 µM (active) and the AC50 [9] was 6.02 µM (active).

For `Cc1ccc(-c2c(C#N)c(N)n3c(nc4ccccc43)c2C#N)cc1`, the EC50 (HEK293 [10]) was 2.11 µM (active), the AC50 (INS1) was 3.86 µM (active) and the IC50 (HEK293 [11]) was > 20 µM (inactive). For the same molecule, the EC50 [12] was > 20 µM (inactive), the IC50 (HEK293 [13]) was 11 µM (active) and the IC50 (HEK293 [14]) was 6.22 µM (active). For the same molecule, the IC50 (HEK293 [15]) was 6.06 µM (active).

With `CCn1nc(NC(=O)COC)c2cc3cc(C)ccc3nc21` the IC50 [7] was 5.02 µM (active) and the IC50 [8] was 6.5 µM (active).

With `O=C(NCc1cccs1)N[C@@H](Cc1ccccc1)C(=O)O` the IC50 (Leucine aminopeptidase) was 57.6 µM (active).
